Source: PubChem BioAssay AID330 (DTP/NCI, 2004)
“And” between values parts separate entries of the source, which are not always exact repeats. Equal entries are not always repeated. Inconclusive results and toxic doses are left out.

Tested on: P388 leukemia ip, CD2F1 mice, survival T/C
Experiment: NCI In Vivo Anticancer Drug Screen. Data for tumor model P388 Leukemia (intraperitoneal) in CD2F1 (CDF1) mice
Settings: endpoint: median survival time, higher = longer survival
Method in brief: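 Mice carrying the transplanted tumor received test compound or vehicle. Survival was recorded in each group, and the value is the treated-group measurement divided by that of the vehicle-treated control group.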

## O=NN(CCCl)C(=O)NCCCl
dose: 1.0 mg/kg/injection, schedule: Q01DX001 (ip), vehicle: Klucel (hydroxypropylcellulose) (HPC)
  T/C: 122 % of control
dose: 1.0 mg/kg/injection, schedule: Q01DX001 (ip), vehicle: saline with Tween-80
  T/C: 115 % of control
dose: 1.0 mg/kg/injection, schedule: Q01DX001 (ip), vehicle: suspension in saline
  T/C: 107 % of control
dose: 1.0 mg/kg/injection, schedule: Q01DX005 (ip), vehicle: saline + alcohol
  T/C: 112 % of control
dose: 2.0 mg/kg/injection, schedule: Q01DX001 (ip), vehicle: Klucel (hydroxypropylcellulose) (HPC)
  T/C: 112 % of control
dose: 2.0 mg/kg/injection, schedule: Q01DX001 (ip), vehicle: saline with Tween-80
  T/C: 107 % of control
dose: 2.0 mg/kg/injection, schedule: Q01DX001 (ip), vehicle: suspension in saline
  T/C: 117 % of control
dose: 2.0 mg/kg/injection, schedule: Q01DX009 (ip), vehicle: other
  T/C: 163 % of control and 175 % of control
dose: 2.0 mg/kg/injection, schedule: Q01DX009 (ip), vehicle: saline with Tween-80
  T/C: 173 % of control
dose: 2.5 mg/kg/injection, schedule: Q04DX003 (iv), vehicle: saline + alcohol
  T/C: 152 % of control
dose: 3.24 mg/kg/injection, schedule: Q04DX003 (ip), vehicle: saline + alcohol
  T/C: 208 % of control
dose: 3.3 mg/kg/injection, schedule: Q01DX005 (ip), vehicle: Klucel (hydroxypropylcellulose) (HPC)
  T/C: 267 % of control
dose: 3.3 mg/kg/injection, schedule: Q01DX005 (ip), vehicle: saline + alcohol
  T/C: 250 % of control and 265 % of control
dose: 3.3 mg/kg/injection, schedule: Q01DX009 (ip), vehicle: saline + alcohol
  T/C: 183 % of control
dose: 3.75 mg/kg/injection, schedule: Q04DX003 (ip), vehicle: saline
  T/C: 176 % of control
dose: 3.89 mg/kg/injection, schedule: Q04DX003 (ip), vehicle: saline + alcohol
  T/C: 178 % of control
dose: 4.0 mg/kg/injection, schedule: Q01DX001 (ip), vehicle: saline + alcohol
  T/C: 123 % of control
dose: 4.0 mg/kg/injection, schedule: Q01DX005 (ip), vehicle: saline + alcohol
  T/C: 170 % of control
dose: 4.0 mg/kg/injection, schedule: Q01DX009 (ip), vehicle: other
  T/C: 215 % of control and 287 % of control
dose: 4.0 mg/kg/injection, schedule: Q01DX009 (ip), vehicle: saline with Tween-80
  T/C: 262 % of control
dose: 4.4 mg/kg/injection, schedule: Q01DX005 (ip), vehicle: saline + alcohol
  T/C: 222 % of control
dose: 5.0 mg/kg/injection, schedule: Q04DX003 (ip), vehicle: saline + alcohol
  T/C: 206 % of control
dose: 5.0 mg/kg/injection, schedule: Q04DX003 (iv), vehicle: saline + alcohol
  T/C: 177 % of control
dose: 5.4 mg/kg/injection, schedule: Q04DX003 (ip), vehicle: saline + alcohol
  T/C: 185 % of control
dose: 6.48 mg/kg/injection, schedule: Q04DX002 (ip), vehicle: saline + alcohol
  T/C: 163 % of control and 169 % of control
dose: 6.48 mg/kg/injection, schedule: Q04DX003 (ip), vehicle: saline + alcohol
  T/C: 219 % of control
dose: 6.6 mg/kg/injection, schedule: Q01DX005 (ip), vehicle: saline + alcohol
  T/C: 305 % of control
dose: 7.5 mg/kg/injection, schedule: Q01DX001 (iv), vehicle: saline + alcohol
  T/C: 164 % of control
dose: 7.5 mg/kg/injection, schedule: Q04DX003 (ip), vehicle: saline
  T/C: 219 % of control
dose: 8.0 mg/kg/injection, schedule: Q01DX001 (ip), vehicle: Klucel (hydroxypropylcellulose) (HPC)
  T/C: 171 % of control
dose: 8.0 mg/kg/injection, schedule: Q01DX001 (ip), vehicle: suspension in saline
  T/C: 166 % of control
dose: 8.0 mg/kg/injection, schedule: Q01DX001 (ip), vehicle: water
  T/C: 200 % of control
dose: 8.0 mg/kg/injection, schedule: Q01DX005 (ip), vehicle: saline + alcohol
  T/C: 254 % of control
dose: 8.0 mg/kg/injection, schedule: Q01DX009 (ip), vehicle: other
  T/C: 264 % of control and 370 % of control
dose: 8.0 mg/kg/injection, schedule: Q01DX009 (ip), vehicle: saline with Tween-80
  T/C: 297 % of control
dose: 9.0 mg/kg/injection, schedule: Q04DX003 (ip), vehicle: saline + alcohol
  T/C: 180 % of control
dose: 10.0 mg/kg/injection, schedule: Q01DX005 (ip), vehicle: Klucel (hydroxypropylcellulose) (HPC)
  T/C: 123 % of control
dose: 10.0 mg/kg/injection, schedule: Q01DX009 (ip), vehicle: Klucel (hydroxypropylcellulose) (HPC)
  T/C: 98 % of control
dose: 10.0 mg/kg/injection, schedule: Q01DX009 (ip), vehicle: saline
  T/C: 240 % of control
dose: 10.0 mg/kg/injection, schedule: Q04DX003 (ip), vehicle: saline + alcohol
  T/C: 320 % of control
dose: 10.0 mg/kg/injection, schedule: Q04DX003 (iv), vehicle: saline + alcohol
  T/C: 265 % of control
dose: 10.8 mg/kg/injection, schedule: Q04DX002 (ip), vehicle: saline + alcohol
  T/C: 200 % of control and 206 % of control
dose: 10.8 mg/kg/injection, schedule: Q04DX003 (ip), vehicle: saline + alcohol
  T/C: 295 % of control
dose: 12.5 mg/kg/injection, schedule: Q01DX005 (ip), vehicle: saline with Tween-80
  T/C: 275 % of control and 315 % of control
dose: 15.0 mg/kg/injection, schedule: Q01DX001 (iv), vehicle: saline + alcohol
  T/C: 222 % of control
dose: 15.0 mg/kg/injection, schedule: Q01DX009 (ip), vehicle: saline
  T/C: 300 % of control
dose: 15.0 mg/kg/injection, schedule: Q04DX003 (ip), vehicle: saline + alcohol
  T/C: 336 % of control
dose: 15.0 mg/kg/injection, schedule: Q04DX003 (ip), vehicle: saline
  T/C: 355 % of control
dose: 16.0 mg/kg/injection, schedule: Q01DX001 (ip), vehicle: Klucel (hydroxypropylcellulose) (HPC)
  T/C: 210 % of control
dose: 16.0 mg/kg/injection, schedule: Q01DX001 (ip), vehicle: saline with Tween-80
  T/C: 192 % of control and 240 % of control
dose: 16.0 mg/kg/injection, schedule: Q01DX001 (ip), vehicle: suspension in saline
  T/C: 186 % of control
dose: 16.0 mg/kg/injection, schedule: Q01DX001 (ip), vehicle: water
  T/C: 429 % of control
dose: 16.0 mg/kg/injection, schedule: Q01DX001 (oral), vehicle: saline with Tween-80
  T/C: 163 % of control
dose: 16.0 mg/kg/injection, schedule: Q01DX005 (ip), vehicle: saline + alcohol
  T/C: 409 % of control
dose: 16.0 mg/kg/injection, schedule: Q01DX009 (ip), vehicle: other
  T/C: 111 % of control and 120 % of control
dose: 16.0 mg/kg/injection, schedule: Q01DX009 (ip), vehicle: saline with Tween-80
  T/C: 118 % of control
dose: 18.0 mg/kg/injection, schedule: Q04DX002 (ip), vehicle: saline + alcohol
  T/C: 250 % of control and 254 % of control
dose: 18.0 mg/kg/injection, schedule: Q04DX003 (ip), vehicle: saline + alcohol
  T/C: 419 % of control
dose: 20.0 mg/kg/injection, schedule: Q01DX001 (ip), vehicle: Klucel (hydroxypropylcellulose) (HPC)
  T/C: 241 % of control
dose: 20.0 mg/kg/injection, schedule: Q04DX003 (ip), vehicle: saline + alcohol
  T/C: 165 % of control
dose: 20.0 mg/kg/injection, schedule: Q04DX003 (iv), vehicle: saline + alcohol
  T/C: 291 % of control
dose: 24.0 mg/kg/injection, schedule: Q01DX001 (ip), vehicle: saline
  T/C: 230 % of control
dose: 25.0 mg/kg/injection, schedule: Q01DX005 (ip), vehicle: saline with Tween-80
  T/C: 184 % of control
dose: 25.0 mg/kg/injection, schedule: Q04DX003 (ip), vehicle: saline + alcohol
  T/C: 233 % of control
dose: 30.0 mg/kg/injection, schedule: Q01DX001 (iv), vehicle: saline + alcohol
  T/C: 352 % of control
dose: 30.0 mg/kg/injection, schedule: Q01DX009 (ip), vehicle: saline
  T/C: 110 % of control
dose: 30.0 mg/kg/injection, schedule: Q04DX002 (ip), vehicle: saline + alcohol
  T/C: 416 % of control and 441 % of control
dose: 30.0 mg/kg/injection, schedule: Q04DX003 (ip), vehicle: saline + alcohol
  T/C: 166 % of control
dose: 30.0 mg/kg/injection, schedule: Q04DX003 (ip), vehicle: saline
  T/C: 441 % of control
dose: 31.25 mg/kg/injection, schedule: Q01DX001 (ip), vehicle: saline with Tween-80
  T/C: 275 % of control
dose: 32.0 mg/kg/injection, schedule: Q01DX001 (ip), vehicle: Klucel (hydroxypropylcellulose) (HPC)
  T/C: 269 % of control
dose: 32.0 mg/kg/injection, schedule: Q01DX001 (ip), vehicle: saline with Tween-80
  T/C: 272 % of control and 588 % of control
dose: 32.0 mg/kg/injection, schedule: Q01DX001 (ip), vehicle: saline
  T/C: 606 % of control
dose: 32.0 mg/kg/injection, schedule: Q01DX001 (ip), vehicle: suspension in saline
  T/C: 289 % of control
dose: 32.0 mg/kg/injection, schedule: Q01DX001 (ip), vehicle: water
  T/C: 429 % of control
dose: 32.0 mg/kg/injection, schedule: Q01DX001 (oral), vehicle: saline with Tween-80
  T/C: 227 % of control
dose: 40.0 mg/kg/injection, schedule: Q01DX001 (ip), vehicle: Klucel (hydroxypropylcellulose) (HPC)
  T/C: 267 % of control
dose: 62.5 mg/kg/injection, schedule: Q01DX001 (ip), vehicle: saline with Tween-80
  T/C: 275 % of control and 297 % of control
dose: 64.0 mg/kg/injection, schedule: Q01DX001 (ip), vehicle: saline with Tween-80
  T/C: 107 % of control and 58 % of control
dose: 64.0 mg/kg/injection, schedule: Q01DX001 (ip), vehicle: suspension in saline
  T/C: 161 % of control
dose: 64.0 mg/kg/injection, schedule: Q01DX001 (oral), vehicle: saline with Tween-80
  T/C: 118 % of control
dose: 80.0 mg/kg/injection, schedule: Q01DX001 (ip), vehicle: Klucel (hydroxypropylcellulose) (HPC)
  T/C: 267 % of control
dose: 128.0 mg/kg/injection, schedule: Q01DX001 (ip), vehicle: Klucel (hydroxypropylcellulose) (HPC)
  T/C: 98 % of control
dose: 128.0 mg/kg/injection, schedule: Q01DX001 (ip), vehicle: saline with Tween-80
  T/C: 98 % of control and 58 % of control
dose: 128.0 mg/kg/injection, schedule: Q01DX001 (ip), vehicle: suspension in saline
  T/C: 107 % of control
